Values after ≈ are worked out from the molar mass of the structure shown.
Key:
[1] = system: Haemophilus influenzae; assay: Antibacterial activity against Haemophilus influenzae HIN 19-18 assessed as inhibition of bacterial growth incubated for 20 to 24 hrs by CLSI based broth microdilution method; format: functional; settings: HIN 19-18, time 20-24 hrs
[2] = system: Moraxella catarrhalis; assay: Antibacterial activity against Moraxella catarrhalis BCA 19-5 assessed as inhibition of bacterial growth incubated for 24 hrs by CLSI based broth microdilution method; format: functional; settings: Moraxella catarrhalis, BCA 19-5, 24 h, read-out: MIC
[3] = system: Haemophilus influenzae; assay: Antibacterial activity against Haemophilus influenzae HIN 20-18 assessed as inhibition of bacterial growth incubated for 20 to 24 hrs by CLSI based broth microdilution method; format: functional; settings: time 20-24 hrs
[4] = system: Moraxella catarrhalis; assay: Antibacterial activity against Moraxella catarrhalis BCA 19-31 assessed as inhibition of bacterial growth incubated for 24 hrs by CLSI based broth microdilution method; format: functional; settings: BCA 19-31, 24 h
[5] = Cytotoxicity against mouse AML12 cells assessed as reduction in cell viability incubated for 48 hrs by MTT assay; format: toxicity, cell-based
[6] = system: Haemophilus influenzae; assay: Antibacterial activity against Haemophilus influenzae HIN 19-15 assessed as inhibition of bacterial growth incubated for 20 to 24 hrs by CLSI based broth microdilution method; format: functional; settings: time 20-24 hrs
[7] = system: Moraxella catarrhalis; assay: Antibacterial activity against Moraxella catarrhalis BCA 19-6 assessed as inhibition of bacterial growth incubated for 24 hrs by CLSI based broth microdilution method; format: functional; settings: Moraxella catarrhalis, BCA 19-6, 24 h, read-out: MIC
[8] = system: Staphylococcus epidermidis; assay: Antibacterial activity against erythromycin-resistant Staphylococcus epidermidis 19-4 assessed as inhibition of visible bacterial growth incubated for 18 hrs by broth microdilution method; format: functional
[9] = system: Streptococcus pneumoniae; assay: Antibacterial activity against erythromycin-resistant Streptococcus pneumoniae SPN19-13 assessed as inhibition of visible bacterial growth incubated for 18 hrs by broth microdilution method; format: functional
[10] = system: Staphylococcus epidermidis; assay: Antibacterial activity against erythromycin-resistant Staphylococcus epidermidis 19-8 assessed as inhibition of visible bacterial growth incubated for 18 hrs by broth microdilution method; format: functional
[11] = system: Staphylococcus epidermidis; assay: Antibacterial activity against erythromycin-resistant Staphylococcus epidermidis 19-9 assessed as inhibition of visible bacterial growth incubated for 18 hrs by broth microdilution method; format: functional
[12] = system: Staphylococcus epidermidis; assay: Antibacterial activity against erythromycin-resistant Staphylococcus epidermidis 19-5 assessed as inhibition of visible bacterial growth incubated for 18 hrs by broth microdilution method; format: functional
[13] = system: Streptococcus pneumoniae; assay: Antibacterial activity against erythromycin-resistant Streptococcus pneumoniae SPN19-14 assessed as inhibition of visible bacterial growth incubated for 18 hrs by broth microdilution method; format: functional
[14] = system: Streptococcus pneumoniae; assay: Antibacterial activity against erythromycin-resistant Streptococcus pneumoniae SPN19-8 assessed as inhibition of visible bacterial growth incubated for 18 hrs by broth microdilution method; format: functional
[15] = system: Streptococcus pyogenes; assay: Antibacterial activity against erythromycin-resistant Streptococcus pyogenes ATCC 19615 assessed as inhibition of visible bacterial growth incubated for 18 hrs by broth microdilution method; format: functional
[16] = system: Staphylococcus epidermidis; assay: Antibacterial activity against erythromycin-resistant Staphylococcus epidermidis 19-6 assessed as inhibition of visible bacterial growth incubated for 18 hrs by broth microdilution method; format: functional
[17] = system: Staphylococcus epidermidis; assay: Antibacterial activity against erythromycin-resistant Staphylococcus epidermidis 19-11 assessed as inhibition of visible bacterial growth incubated for 18 hrs by broth microdilution method; format: functional
[18] = system: Streptococcus agalactiae; assay: Antibacterial activity against erythromycin-resistant Streptococcus agalactiae 19-9 assessed as inhibition of visible bacterial growth incubated for 18 hrs by broth microdilution method; format: functional
[19] = system: Streptococcus agalactiae; assay: Antibacterial activity against erythromycin-resistant Streptococcus agalactiae 19-8 assessed as inhibition of visible bacterial growth incubated for 18 hrs by broth microdilution method; format: functional

SMILES | MIC [1] | MIC [2] | MIC [3] | MIC [4] | CC50 at 48 h [5] | MIC [6] | MIC [7] | MIC [8] | MIC [9] | MIC [10] | MIC [11] | MIC [12] | MIC [13] | MIC [14] | MIC [15] | MIC [16] | MIC [17] | MIC [18] | MIC [19]
CC[C@H]1OC(=O)[C@@](C)(F)C(=O)[C@H](C)[C@@H](O[C@@H]2O[C@H](C)C[C@H](N(C)C)[C@H]2O)[C@](C)(OC)C[C@@H](C)C(=O)[C@H](C)[C@H]2N(CCCOC(=O)Nc3cc(C)oc3C(F)(F)F)C(=O)O[C@]12C | 4 µg/mL (≈ 4.55 µM) | 0.5 µg/mL (≈ 0.568 µM) | > 16 µg/mL | 0.5 µg/mL (≈ 0.568 µM) | 35.9 µM | 0.5 µg/mL (≈ 0.568 µM) | 0.5 µg/mL (≈ 0.568 µM) |  |  |  |  |  |  |  |  |  |  |  | 
CC[C@H]1OC(=O)[C@H](C)[C@@H](O[C@H]2C[C@@](C)(OC)[C@@H](O)[C@H](C)O2)[C@H](C)[C@@H](O[C@@H]2O[C@H](C)C[C@H](N(C)C)[C@H]2O)[C@](C)(OC)C[C@@H](C)C(=O)[C@H](C)[C@@H](O)[C@]1(C)O [CLARITHROMYCIN] | 8 µg/mL (≈ 10.7 µM) | > 64 µg/mL | > 16 µg/mL | 0.125 µg/mL (≈ 0.167 µM) | > 100 µM | 4 µg/mL (≈ 5.35 µM) | 32 µg/mL (≈ 42.8 µM) | > 64 µg/mL | 64 µg/mL (≈ 85.6 µM) | > 64 µg/mL | 16 µg/mL (≈ 21.4 µM) | 0.25 µg/mL (≈ 0.334 µM) | 0.5 µg/mL (≈ 0.668 µM) | > 64 µg/mL | < 0.03 µg/mL | 64 µg/mL (≈ 85.6 µM) | 16 µg/mL (≈ 21.4 µM) | 64 µg/mL (≈ 85.6 µM) | 0.06 µg/mL (≈ 0.0802 µM)
CCOc1ccc(NC(=O)OCCCN2C(=O)O[C@]3(C)[C@@H](CC)OC(=O)[C@@](C)(F)C(=O)[C@H](C)[C@@H](O[C@@H]4O[C@H](C)C[C@H](N(C)C)[C@H]4O)[C@](C)(OC)C[C@@H](C)C(=O)[C@H](C)[C@@H]23)cc1 | 16 µg/mL (≈ 18.8 µM) | 0.5 µg/mL (≈ 0.587 µM) | > 16 µg/mL | 0.5 µg/mL (≈ 0.587 µM) | 36.5 µM | > 16 µg/mL | 1 µg/mL (≈ 1.17 µM) | 0.5 µg/mL (≈ 0.587 µM) | 0.5 µg/mL (≈ 0.587 µM) | 0.25 µg/mL (≈ 0.293 µM) | 0.5 µg/mL (≈ 0.587 µM) | 0.06 µg/mL (≈ 0.0704 µM) | 0.5 µg/mL (≈ 0.587 µM) | 0.25 µg/mL (≈ 0.293 µM) | < 0.03 µg/mL | 0.25 µg/mL (≈ 0.293 µM) | 0.125 µg/mL (≈ 0.147 µM) | 2 µg/mL (≈ 2.35 µM) | 
CC[C@H]1OC(=O)[C@H](C)[C@@H](O[C@H]2C[C@@](C)(OC)[C@@H](O)[C@H](C)O2)[C@H](C)[C@@H](O[C@@H]2O[C@H](C)C[C@H](N(C)C)[C@H]2O)[C@](C)(O)C[C@@H](C)CN(C)[C@H](C)[C@@H](O)[C@]1(C)O [AZITHROMYCIN] | 4 µg/mL (≈ 5.34 µM) | > 64 µg/mL | > 16 µg/mL | 0.125 µg/mL (≈ 0.167 µM) | > 100 µM | 4 µg/mL (≈ 5.34 µM) | > 64 µg/mL | > 64 µg/mL | > 64 µg/mL | 0.25 µg/mL (≈ 0.334 µM) | > 64 µg/mL | 0.5 µg/mL (≈ 0.668 µM) | 4 µg/mL (≈ 5.34 µM) | 0.25 µg/mL (≈ 0.334 µM) | 0.25 µg/mL (≈ 0.334 µM) | 0.5 µg/mL (≈ 0.668 µM) | 0.25 µg/mL (≈ 0.334 µM) | 0.125 µg/mL (≈ 0.167 µM) | 0.5 µg/mL (≈ 0.668 µM)
CC[C@H]1OC(=O)[C@@](C)(F)C(=O)[C@H](C)[C@@H](O[C@@H]2O[C@H](C)C[C@H](N(C)C)[C@H]2O)[C@](C)(OC)C[C@@H](C)C(=O)[C@H](C)[C@H]2N(CCCOC(=O)Nc3c(F)cccc3F)C(=O)O[C@]12C | 4 µg/mL (≈ 4.74 µM) | 0.122 µg/mL (≈ 0.145 µM) | 16 µg/mL (≈ 19 µM) | 0.125 µg/mL (≈ 0.148 µM) | > 100 µM | 4 µg/mL (≈ 4.74 µM) | 0.125 µg/mL (≈ 0.148 µM) | 0.03 µg/mL (≈ 0.0355 µM) | 0.125 µg/mL (≈ 0.148 µM) | 0.125 µg/mL (≈ 0.148 µM) | 0.25 µg/mL (≈ 0.296 µM) | < 0.03 µg/mL | 0.125 µg/mL (≈ 0.148 µM) | 0.125 µg/mL (≈ 0.148 µM) | < 0.03 µg/mL | 0.125 µg/mL (≈ 0.148 µM) | < 0.03 µg/mL | 1 µg/mL (≈ 1.18 µM) | 
CC[C@H]1OC(=O)[C@@](C)(F)C(=O)[C@H](C)[C@@H](O[C@@H]2O[C@H](C)C[C@H](N(C)C)[C@H]2O)[C@](C)(OC)C[C@@H](C)C(=O)[C@H](C)[C@H]2N(CCCOC(=O)Nc3cccc(C)c3C)C(=O)O[C@]12C | 8 µg/mL (≈ 9.57 µM) | 0.125 µg/mL (≈ 0.15 µM) | 16 µg/mL (≈ 19.1 µM) | 0.125 µg/mL (≈ 0.15 µM) | 26 µM | 8 µg/mL (≈ 9.57 µM) | 0.125 µg/mL (≈ 0.15 µM) | 0.03 µg/mL (≈ 0.0359 µM) | 0.06 µg/mL (≈ 0.0718 µM) | < 0.03 µg/mL | 0.125 µg/mL (≈ 0.15 µM) | < 0.03 µg/mL | 0.06 µg/mL (≈ 0.0718 µM) | 0.125 µg/mL (≈ 0.15 µM) | < 0.03 µg/mL | 0.03 µg/mL (≈ 0.0359 µM) | 0.03 µg/mL (≈ 0.0359 µM) | 1 µg/mL (≈ 1.2 µM) | 

Reference: ChEMBL document CHEMBL5543097, “Synthesis and structure-activity relationships of novel 14-membered 2-fluoro ketolides with structural modification at the C11 position” (Eur J Med Chem, 2024)
